# Source: patent US20180021315A1, “METHODS OF TREATING HEARING DISORDERS” (Wayne State University, priority 2016, published 2018)
# “Also recorded” adds a separate entry of the source.
# Tests used:
# Pyramidal neurons = assay: Patch clamp mIPSC and mEPSC in brain slices after noise exposure; type: in vivo, mouse
# Experimental: Three groups of C75BL6 mice were used. Two were exposed to 123-dB noise in the left ear for two hours. Animals in one of the two exposed group were administered 3,6′-dithiothalidomide. The drug was administered daily for five days. The remaining third group underwent the same procedure but without noise exposure or drug administration. On day 10 post-noise exposure, animals were euthanized and brain slices were prepared. Pyramidal neurons in the brain slices were recorded as described above. Miniature inhibitory and excitatory synaptic transmissions (mIPSC and mEPSC) were examined.
# DCN, IC and AC neurons = assay: Neurophysiological recordings of DCN, IC and AC after blast exposure; type: in vivo, rat; details: blast-exposed rats, 56 mg/kg i.p.
# Experimental: Rats were exposed or sham-exposed to a blast shockwave. To determine whether TNF-α is involved in blast-induced tinnitus, the rats were injected once daily for 5 days with 3,6′-dithiothalidomide starting 7 days after blast exposure. Behavioral testing and ABR recordings started 1 day after drug injection and lasted for three weeks.
# Neurophysiological recordings of the left DCN, right IC and right AC were performed 3 weeks after drug or vehicle injection. Each rat was anesthetized with a mixture of air (1 liter/min) and isoflurane (5% v/v) and then secured in a stereotaxic frame with hollow ear bars (model 1530; David Kopf Instruments, Tujunga, Calif.). A mixture of air (1 liter/min) and isoflurane (1.75-2.5% v/v) was used to maintain anesthesia during surgery and recordings. In order to maintain the rat's body temperature at 37° C., a thermostat-controlled blanket (Harvard Apparatus, Holliston, Mass.) was used during the procedure. For electrophysiological recording, electrode arrays were inserted into the DCN, IC, and AC. Prior to insertion, the electrode probe was dipped into a 3% DiI solution (1,10-dioctadecyl-3,3,30,30-tetramethylindocarbocyanine perchlorate; Invitrogen, Carlsbad, Calif.) prepared with dimethylformamide to label the electrode insertion tracks. By using a micromanipulator (model 1460-61; David Kopf Instruments), an eight-shank, 32-channel electrode probe (NeuroNexus Technologies, Ann Arbor, Mich.) was inserted into the DCN and the probe was inserted into a depth of […] below the DCN surface, corresponding to the fusiform cell layer. For the IC, a two-shank 32-Channel (NeuroNexus) probe was inserted 20° off of the sagittal plane and 30° off of the horizontal plane through the occipital cortex into the IC. To implant in the AC, a 32 (4×8) microwire array was implanted 2.7 to 5.8 mm posterior to the bregma, and ˜0.8-1.0 mm from the cortical surface. After probe placement, the brain was covered with agarose to avoid tissue swelling and drying. The probe connector was connected to a real-time signal processing system (RZ2, TDT) with a 25 kHz sampling rate and a 100-3000 Hz bandpass filter. Spontaneous activity, frequency tuning curves (FTCs), and acoustic stimulation with tone and noise bursts (BBN) was recorded. Spontaneous single- and multi-unit spikes were recorded twice; one 5 min prior to and one 5 min after frequency tuning curve (FTC) construction. Each spontaneous recording period lasted 5 min. FTCs were obtained to determine the frequency representation of each implanted electrode in the DCN, IC and AC using tone sweeps (50 ms in duration, 2-44 kHz, incremental steps of 2 dB, sound level range of 0-85 dB SPL).
# AC pyramidal neurons = assay: Patch clamp recording of miniature synaptic currents in AC slices after blast exposure; type: in vivo, rat
# Experimental: Two groups of 7 rats each were exposed to blast shockwaves as described above, and an additional group of 7 rats was sham-exposed. One of the exposed groups was administered 3,6′-dithiothalidomide for five days starting on the day of the exposure, and the other exposed group was administered vehicle. Brain slides were prepared from the AC of the rats 10-20 days after the blast exposure. Pyramidal neurons were recorded using the patch clamp method. Miniature synaptic currents were recorded to assess the functional states of the excitatory and inhibitory synaptic transmission. Neurons were filled with biocytin, which was stained with immunocytochemistry to reveal the morphology of the recorded neurons.
# [1] = test system: ionized calcium-binding adapter molecule 1 (Iba-1); assay: Iba-1 immunostaining densitometry of microglia after blast; type: in vivo, rat; details: immunostained microglia, FIG. 23A
# From the text: (§1) FIGS. 23A and 23B depict densitometry measurements of ionized calcium-binding adapter molecule 1 (Iba-1) and TNF-α expression, respectively, as observed by fluorescence microscopy of immunohistochemistry-stained microglia. […] Error bars in FIGS. 23A-23B depict standard deviation.
# TNF-α = TNF-α immunostaining densitometry of microglia and astrocytes after blast; type: in vivo, rat
# From the text: as §1
# (§2) FIGS. 24A and 24B depict densitometry measurements of glial fibrillary acidic protein (GFAP) and TNF-α expression, respectively, as observed by fluorescence microscopy of immunohistochemistry-stained AC astrocytes. […] The decrease in astrocyte TNF-α expression was relatively smaller than the decrease in microglial TNF-α expression (compare […] with FIG. 23B). […] Error bars in FIGS. 24A-24B depict standard deviation.
# [2] = test system: glial fibrillary acidic protein (GFAP); assay: GFAP immunostaining densitometry of AC astrocytes after blast; type: in vivo, rat; details: immunostained AC astrocytes, FIG. 24B
# From the text: as §2
compound,measurement,setting,value
"O=C1NC(=S)CCC1N1C(=O)c2ccccc2C1=S (centres unmarked) [3,6′-dithiothalidomide]",mIPSC frequency (noise-induced reduction),"Pyramidal neurons; mice, 123-dB noise 2 h, 28 mg/kg daily for five days, day 10, FIG. 26A, 28 mg/kg",completely reversed; also recorded: rescues the reduction in mIPSC frequency
same,mIPSC amplitude (noise-induced reduction),"Pyramidal neurons; mice, 123-dB noise 2 h, 28 mg/kg, FIG. 26B",rescues the reduction in mIPSC amplitude
same,mEPSC frequency,"Pyramidal neurons; noise-exposed treated mice relative to control mice, FIG. 26C",no effect
same,mEPSC amplitude,"Pyramidal neurons; noise-exposed treated mice relative to control mice, FIG. 26D",no significant effect
same,neuronal firing synchrony (correlogram ratio),"DCN, IC and AC neurons; DCN, IC and AC, FIGS. 22A-22C",significantly reduced neuronal firing synchrony
same,spontaneous bursting rate in the DCN,"DCN, IC and AC neurons; FIG. 20A",reduced bursting rates in blast-exposed animals to the control level
same,spontaneous firing rate in the DCN,"DCN, IC and AC neurons; FIG. 20B",reduced firing rates in blast-exposed animals to the control level
same,spontaneous bursting rate in the AC,"DCN, IC and AC neurons; FIG. 21A",reduced bursting rates in blast-exposed animals relative to vehicle
same,spontaneous firing rate in the AC,"DCN, IC and AC neurons; FIG. 21B",reduced firing rates in blast-exposed animals to the control level
same,cumulative distribution of mIPSC frequency (blast-induced shift to lower frequencies),"AC pyramidal neurons; 56 mg/kg i.p., Kolmogorov-Smirnov Test p<0.001, FIG. 19",reversed this effect
same,mIPSCs in recording traces of auditory cortical neurons,"AC pyramidal neurons; blast-exposed rats, drug for five days from day of exposure, vs vehicle-treated, FIG. 17C",less reduction in mIPSCs
same,mIPSC frequency (blast-induced reduction),"AC pyramidal neurons; blast-exposed rats, 56 mg/kg i.p. daily, FIG. 18B",completely abolished the blast-induced reduction
same,mIPSC amplitude,"AC pyramidal neurons; blast-exposed rats, 56 mg/kg i.p., relative to sham-blast controls, FIG. 18A",did not significantly change mIPSC amplitudes
same,blast-induced microglial activation (Iba-I staining),[1],not blocked
same,blast-induced astrocyte TNF-α expression,"TNF-α; immunostained AC astrocytes, FIG. 24A",partially blocked
same,blast-induced microglial TNF-α expression,"TNF-α; immunostained microglia, FIG. 23B",is blocked
same,blast-induced astrocyte GFAP expression,[2],is blocked
